In patent US11339161B2, “Triazolo pyridines as modulators of gamma-secretase” (Boehringer Ingelheim International GmbH, priority 2017, dated 2022):
Where two headings read alike, the source gives them in different places.

Columns and labels:
kinases = assay: Z'-LYTE SelectScreen kinase panel: number of kinases with <40% inhibition out of 15 tested; format: biochemical; settings: 10 μmolar (10000 nM) compound; [ATP] Km app; 15 kinases tested
KDR (VEGFR2) = KDR (VEGFR2) (Homo sapiens, UniProt P35968); assay: Z'-LYTE SelectScreen biochemical kinase assay KDR (VEGFR2)
Description: Thermo Fisher Scientific SelectScreen™ Biochemical Kinase Profiling Service Z′-LYTE™ Screening Protocol and Assay Conditions Assay Theory
The […] biochemical assay employs a fluorescence-based, coupled-enzyme format and is based on the differential sensitivity of phosphorylated and non-phosphorylated peptides to proteolytic cleavage. The peptide substrate is labeled with two fluorophores—one at each end—that make up a FRET pair. In the primary reaction, the kinase transfers the gamma-phosphate of ATP to a single tyrosine, serine or threonine residue in a synthetic FRET-peptide. In the secondary reaction, a site-specific protease recognizes and cleaves non-phosphorylated FRET-peptides. Phosphorylation of FRET-peptides suppresses cleavage by the Development Reagent. Cleavage disrupts FRET between the donor (i.e., coumarin) and acceptor (i.e., fluorescein) fluorophores on the FRET-peptide, whereas uncleaved, phosphorylated FRET-peptides maintain FRET. A ratiometric method, which calculates the ratio (Emission Ratio=Coumarin emission (445 nm)/Fluorescein emission (520 nm)) of donor emission to acceptor emission after excitation of the donor fluorophore at 400 nm, is used to quantitate reaction progress, as shown in the equation below. A significant benefit of this ratiometric method for quantitating reaction progress is the elimination of well-to-well variations in FRET-peptide concentration and signal intensities. As a result, the assay yields very high Z′-factor values (>0.7) at a low percent phosphorylation. Both cleaved and uncleaved FRET-peptides contribute to the fluorescence signals and therefore to the Emission Ratio. The extent of phosphorylation of the FRET-peptide can be calculated from the Emission Ratio. The Emission Ratio will remain low if the FRET-peptide is phosphorylated (i.e., no kinase inhibition) and will be high if the FRET-peptide is non-phosphorylated (i.e., kinase inhibition).
The Test Compounds are screened in 1% DMSO (final) in the well. For 10 point titrations, 3-fold serial dilutions are conducted from the starting concentration of the customer's choosing.
All Peptide/Kinase Mixtures are diluted to a 2× working concentration in the appropriate Kinase Buffer (see section Kinase Specific Assay Conditions for a complete description).
All ATP Solutions are diluted to a 4× working concentration in Kinase Buffer (50 mM HEPES pH 7.5, 0.01% BRIJ-35, 10 mM MgCl2, 1 mM EGTA). ATP Km apparent is previously determined using a Z″-LYTE assay.
The Development Reagent is diluted in Development Buffer (see section Kinase-Specific Assay Conditions—Direct and Cascade for a complete description).
Bar-coded Corning, low volume NBS, black 384-well plate (Corning Cat. #4514) • 1. 100 nL—100× Test Compound in 100% DMSO • 2. 2.4 μL—Kinase buffer • 3. 5 μL—2× Peptide/Kinase Mixture • 4. 2.5 μL—4×ATP Solution • 5. 30—second plate shake • 6. 60—minute Kinase Reaction incubation at room temperature • 7. 5 μL—Development Reagent Solution • 8. 30—second plate shake • 9. 60—minute Development Reaction incubation at room temperature • 10. Read on fluorescence plate reader and analyze the data Z′-LYTE Assay Controls
SelectScreen Kinase Profiling Service uses XLfit from IDBS. The dose response curve is curve fit to model number 205 (sigmoidal dose-response model).
The 2×KDR (VEGFR2)/Tyr 01 mixture is prepared in 50 mM HEPES pH 7.5, 0.01% BRIJ-35, 10 mM MgCl2, 1 mM EGTA. The final 10 μL Kinase Reaction consists of 1-30 ng KDR (VEGFR2) and 2 μM Tyr 01 in 50 mM HEPES pH 7.5, 0.01% BRIJ-35, 10 mM MgCl2, 1 mM EGTA. After the 1 hour Kinase Reaction incubation, 5 μL of a 1:256 dilution of Development Reagent B is added.

panel of 15 kinases = assay: Z'-LYTE SelectScreen kinase panel: number of kinases with <40% inhibition; format: biochemical; settings: of 15 kinases tested; 10 μmolar compound; ATP at Km app
[1] = 10 μmolar compound concentration, ATP at Km app, read-out: KDR (VEGFR2) inhibition
[2] = read-out: % Inhibition mean KDR (VEGFR2)

KDR (VEGFR2), sequence (P35968 20-1356): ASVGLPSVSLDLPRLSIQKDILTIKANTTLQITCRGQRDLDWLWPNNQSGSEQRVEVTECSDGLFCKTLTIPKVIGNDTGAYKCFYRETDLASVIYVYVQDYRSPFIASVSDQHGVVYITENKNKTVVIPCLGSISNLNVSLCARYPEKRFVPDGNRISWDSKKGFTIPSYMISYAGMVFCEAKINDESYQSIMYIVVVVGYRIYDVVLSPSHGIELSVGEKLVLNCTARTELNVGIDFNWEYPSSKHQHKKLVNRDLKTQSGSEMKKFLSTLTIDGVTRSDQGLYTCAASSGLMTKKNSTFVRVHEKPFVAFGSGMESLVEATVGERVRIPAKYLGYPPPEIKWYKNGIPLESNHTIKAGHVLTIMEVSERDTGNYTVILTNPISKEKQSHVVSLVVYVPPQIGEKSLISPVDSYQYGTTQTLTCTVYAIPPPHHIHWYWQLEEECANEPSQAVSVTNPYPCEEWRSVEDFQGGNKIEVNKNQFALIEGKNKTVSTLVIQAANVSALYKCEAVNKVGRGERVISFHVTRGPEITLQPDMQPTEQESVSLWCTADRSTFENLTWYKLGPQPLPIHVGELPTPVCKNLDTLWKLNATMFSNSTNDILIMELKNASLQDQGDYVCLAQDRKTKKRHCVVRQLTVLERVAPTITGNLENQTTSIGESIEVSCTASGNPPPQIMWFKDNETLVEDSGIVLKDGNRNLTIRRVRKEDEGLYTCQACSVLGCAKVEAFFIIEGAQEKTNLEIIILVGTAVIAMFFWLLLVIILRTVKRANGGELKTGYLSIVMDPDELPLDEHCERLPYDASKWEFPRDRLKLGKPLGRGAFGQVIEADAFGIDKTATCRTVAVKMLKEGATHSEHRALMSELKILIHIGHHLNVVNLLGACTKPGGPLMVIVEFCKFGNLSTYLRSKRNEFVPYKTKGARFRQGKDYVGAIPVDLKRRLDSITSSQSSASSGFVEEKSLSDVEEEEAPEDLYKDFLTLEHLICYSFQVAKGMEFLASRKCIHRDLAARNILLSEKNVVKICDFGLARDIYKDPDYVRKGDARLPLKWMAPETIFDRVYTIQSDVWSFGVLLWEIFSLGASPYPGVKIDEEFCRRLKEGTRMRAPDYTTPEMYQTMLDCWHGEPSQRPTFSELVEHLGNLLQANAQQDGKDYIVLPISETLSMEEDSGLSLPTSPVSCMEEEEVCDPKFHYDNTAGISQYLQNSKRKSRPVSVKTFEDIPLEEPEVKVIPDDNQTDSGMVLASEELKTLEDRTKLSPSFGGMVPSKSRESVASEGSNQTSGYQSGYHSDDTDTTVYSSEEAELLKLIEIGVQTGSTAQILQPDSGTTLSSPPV

No. of kinases with <40% inhibition (kinases)	inhibition at 10 µM (KDR (VEGFR2); [1]) [%]	inhibition at 10 µM (KDR (VEGFR2); [2]) [%]	No. of kinases with <40% inhibition (panel of 15 kinases)	Compound
7/15	< 40	30		Cc1cc(F)ccc1-c1cccn2nc(Nc3ccc4c(cnn4C)c3)nc12 [Example 9, [8-(4-fluoro-2-methyl-phenyl)-[1,2,4]triazolo[1,5-a]pyridine-2-yl]-(1-methyl-1H-indazol-5-yl)-amine]
12/15	< 40	18		CCn1ncc2c1CCC(Nc1nc3c(-c4ccccc4)cccn3n1)C2 (stereo not drawn) [Example 57, (1-Ethyl-4,5,6,7-tetrahydro-1H-indazol-5-yl)-(8-phenyl-[1,2,4]triazolo[1,5-a]pyridine-2-yl)-amine]
14/15	< 40	2		CCn1nc(Cl)c2c1CCC(Nc1nc3c(-c4ccc(F)cc4C)cccn3n1)C2 (stereo not drawn) [Example 48, (3-Chloro-1-ethyl-4,5,6,7-tetrahydro-1H-indazol-5-yl)-[8-(4-fluoro-2-methyl-phenyl)-[1,2,4]triazolo[1,5-a]pyridine-2-yl]-amine]
	< 40	17	11/15	CCn1ncc2c1CCC(Nc1nc3c(-c4ccc(OC)nc4)cccn3n1)C2 (stereo not drawn) [Example 71, (1-Ethyl-4,5,6,7-tetrahydro-1H-indazol-5-yl)-[8-(6-methoxy-pyridin-3-yl)-[1,2,4]triazolo[1,5-a]pyridine-2-yl]-amine]
	< 40	8	12/15	CCn1ncc2c1CCC(Nc1nc3c(-c4cccnc4)cccn3n1)C2 (stereo not drawn) [Example 63, (1-Ethyl-4,5,6,7-tetrahydro-1H-indazol-5-yl)-(8-pyridin-3-yl-[1,2,4]triazolo[1,5-a]pyridine-2-yl)-amine]
13/15	< 40	12		CCn1ncc2c1CCC(Nc1nc3c(-c4ccc(F)cc4)cccn3n1)C2 (stereo not drawn) [Example 55, (1-Ethyl-4,5,6,7-tetrahydro-1H-indazol-5-yl)-[8-(4-fluoro-phenyl)-[1,2,4]triazolo[1,5-a]pyridine-2-yl]-amine]
14/15	< 40	3		CCCCn1ncc2c1CCC(Nc1nc3c(-c4ccc(F)cc4C)cccn3n1)C2 (stereo not drawn) [Example 46, [8-(4-fluoro-2-methyl-phenyl)-[1,2,4]triazolo[1,5-a]pyridine-2-yl]-(1-butyl-4,5,6,7-tetrahydro-1H-indazol-5-yl)-amine]
15/15	< 40	6		CCCCCn1ncc2c1CCC(Nc1nc3c(-c4ccc(F)cc4C)cccn3n1)C2 (stereo not drawn) [Example 47, [8-(4-fluoro-2-methyl-phenyl)-[1,2,4]triazolo[1,5-a]pyridine-2-yl]-(1-pentyl-4,5,6,7-tetrahydro-1H-indazol-5-yl)-amine]
14/15	< 40	10		CCn1ncc2c1CC[C@@H](Nc1nc3c(-c4ccc(F)cc4C)cccn3n1)C2 [Example R-42, (R)-(1-Ethyl-4,5,6,7-tetrahydro-1H-indazol-5-yl)-[8-(4-fluoro-2-methyl-phenyl)-[1,2,4]triazolo[1,5-a]pyridine-2-yl]-amine]
12/15	< 40	6		CCn1ncc2c1CCC(Nc1nc3c(-c4ccccc4C)cccn3n1)C2 (stereo not drawn) [Example 56, (1-Ethyl-4,5,6,7-tetrahydro-1H-indazol-5-yl)-[8-(2-methyl-phenyl)-[1,2,4]triazolo[1,5-a]pyridine-2-yl]-amine]
	< 40	8	15/15	CCn1ncc2c1CCC(Nc1nc3c(-c4cccnc4OC)cccn3n1)C2 (stereo not drawn) [Example 69, (1-Ethyl-4,5,6,7-tetrahydro-1H-indazol-5-yl)-[8-(2-methoxy-pyridin-3-yl)-[1,2,4]triazolo[1,5-a]pyridine-2-yl]-amine]
13/15	< 40	-10		Cc1cc(F)ccc1-c1cccn2nc(NC3CCc4cnn(C)c4C3)nc12 (stereo not drawn) [Example 40, [8-(4-Fluoro-2-methyl-phenyl)-[1,2,4]triazolo[1,5-a]pyridine-2-yl]-(1-methyl-4,5,6,7-tetrahydro-1H-indazol-6-yl)-amine]
14/15	< 40	-3		CCCn1ncc2c1CCC(Nc1nc3c(-c4ccc(F)cc4C)cccn3n1)C2 (stereo not drawn) [Example 43, [8-(4-fluoro-2-methyl-phenyl)-[1,2,4]triazolo[1,5-a]pyridine-2-yl]-(1-propyl-4,5,6,7-tetrahydro-1H-indazol-5-yl)-amine]
13/15	< 40	3		Cc1cc(F)ccc1-c1cccn2nc(NC3CCc4c(cnn4C(C)C)C3)nc12 (stereo not drawn) [Example 44, [8-(4-fluoro-2-methyl-phenyl)-[1,2,4]triazolo[1,5-a]pyridine-2-yl]-(1-isopropyl-4,5,6,7-tetrahydro-1H-indazol-5-yl)-amine]
13/15	< 40	-2		Cc1cc(F)ccc1-c1cccn2nc(NC3CCc4c(cnn4C)C3)nc12 (stereo not drawn) [Example 10, [8-(4-fluoro-2-methyl-phenyl)-[1,2,4]triazolo[1,5-a]pyridine-2-yl]-(1-methyl-4,5,6,7-tetrahydro-1H-indazol-5-yl)-amine]
14/15	< 40	-10		Cc1cc(F)ccc1-c1cccn2nc(NC3CCc4c(cnn4CC(C)C)C3)nc12 (stereo not drawn) [Example 45, [8-(4-fluoro-2-methyl-phenyl)-[1,2,4]triazolo[1,5-a]pyridine-2-yl]-(1-isobutyl-4,5,6,7-tetrahydro-1H-indazol-5-yl)-amine]
15/15	< 40	5		CCc1nn(C)c2c1CCC(Nc1nc3c(-c4ccc(F)cc4C)cccn3n1)C2 (stereo not drawn) [Example 54, (3-Ethyl-1-methyl-4,5,6,7-tetrahydro-1H-indazol-6-yl)-[8-(4-fluoro-2-methyl-phenyl)-[1,2,4]triazolo[1,5-a]pyridine-2-yl]-amine]
15/15	< 40	-3		CCn1ncc2c1CCC(Nc1nc3c(-c4ccc(F)cc4C)cccn3n1)C2 (stereo not drawn) [Example 42, (1-Ethyl-4,5,6,7-tetrahydro-1H-indazol-5-yl)-[8-(4-fluoro-2-methyl-phenyl)-[1,2,4]triazolo[1,5-a]pyridine-2-yl]-amine]
15/15	< 40	-10		CCn1nnc2c1CCC(Nc1nc3c(-c4ccc(F)cc4C)cccn3n1)C2 (stereo not drawn) [Example 51, (1-Ethyl-4,5,6,7-tetrahydro-1H-benzotriazol-5-yl)-[8-(4-fluoro-2-methyl-phenyl)-[1,2,4]triazolo[1,5-a]pyridine-2-yl]-amine]
14/15	< 40	8		CCn1ncc2c1C(C)CC(Nc1nc3c(-c4cc(F)c(F)c(F)c4)cccn3n1)C2 (stereo not drawn) [Example 49, (1-Ethyl-7-methyl-4,5,6,7-tetrahydro-1H-indazol-5-yl)-[8-(3,4,5-trifluoro-phenyl)-[1,2,4]triazolo[1,5-a]pyridine-2-yl]-amine]
